This is an account of results in ChEMBL document CHEMBL1144672, “The use of ligand-based de novo design for scaffold hopping and sidechain optimization: two case studies” (Bioorg Med Chem, 2008).

Each structure is given as a SMILES string.

For assay [1], the target named is T1, Gonadotropin-releasing hormone receptor (Homo sapiens, UniProt P30968).
T1 sequence (P30968 whole entry): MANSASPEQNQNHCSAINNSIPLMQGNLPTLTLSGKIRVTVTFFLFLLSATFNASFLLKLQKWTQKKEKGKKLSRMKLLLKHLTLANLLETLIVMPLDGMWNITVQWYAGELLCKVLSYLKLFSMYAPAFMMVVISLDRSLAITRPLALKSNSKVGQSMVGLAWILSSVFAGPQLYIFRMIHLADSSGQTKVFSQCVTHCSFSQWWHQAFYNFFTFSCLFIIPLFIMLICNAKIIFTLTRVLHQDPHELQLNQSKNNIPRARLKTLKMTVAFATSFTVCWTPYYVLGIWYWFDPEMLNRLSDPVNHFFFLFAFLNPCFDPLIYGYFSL
As to the kind of experiment: Inhibition of GnRH receptor.

Assay [2] addresses T2, Gonadotropin-releasing hormone receptor (Homo sapiens) (UniProt P30968).
T2 sequence (whole entry): T1 sequence (P30968 whole entry)
As to the kind of experiment: Inhibition of GnRH receptor at 10 uM.

`CC(CCN1CCc2c(c(=O)n(CCN3CCCCC3)c(=O)n2Cc2c(F)cccc2F)C1)CC(C)(C)C` (stereo not drawn) showed a Ki in assay [1] of 4400 nM. The same compound showed an inhibition in assay [2] of 50%. Compound `CC(C)CN(C)CCn1c(=O)c2c(n(CCOc3ccccc3)c1=O)CCN(CCCC(F)(F)F)C2` came in with an inhibition in assay [2] of 0%. In assay [1], `Cc1cc(C)cc(-c2[nH]c3ccc(C(C)(C)C(=O)N4C5CCC4CC5)cc3c2C(C)CNCCCCc2ccnnc2)c1` (stereo not drawn) came in with a Ki of 0.7 nM. The compound `COc1cccc(-c2c(C)n(Cc3c(F)cccc3F)c(=O)n(CC(C)NCc3nccs3)c2=O)c1F` (stereo not drawn) showed an inhibition constant Ki in assay [1] of 6 nM. The compound `Cc1ccc(CN2CCc3c(c(=O)n(CC4NCCc5ccccc54)c(=O)n3Cc3c(F)cccc3F)C2)c(C)c1` (stereo not drawn) registered an inhibition constant Ki in assay [1] of 110 nM. This compound showed an inhibition in assay [2] of 95%. As to `COc1ccc(CN2CC3CC(c4ccc(N(C)C)c5ccccc45)N4C(=O)N(CCN5CCOCC5)C(=O)C34C2)cc1NC(C)=O` (stereo not drawn), the Ki in assay [1] was 21 nM. `CNC(Cn1c(=O)c2c(n(Cc3c(F)cccc3F)c1=O)CCN(Cc1ccc(C)cc1C)C2)c1ccccc1` (stereo not drawn): in assay [1], the Ki came to 50 nM. For the same compound, the inhibition in assay [2] came out at 100%.

Compound `NC(CC1CCCCC1)Cn1c(=O)c2c(n(Cc3c(F)cccc3F)c1=O)CCN(Cc1ccc(Cl)cc1)C2` (stereo not drawn) yielded an inhibition constant (Ki) in assay [1] of 3200 nM. In assay [2], the inhibition worked out at 66%. In the case of `O=c1c2c(n(Cc3c(F)cccc3F)c(=O)n1CCN1CCc3ccccc3C1)CCN(CC1CCCC1)C2`, the inhibition in assay [2] amounted to 16%.

For `CCOC(=O)c1cn(Cc2c(F)cccc2F)c2cc(-c3ccc(NC(=O)CC)cc3)c(CN(C)Cc3ccccc3)cc2c1=O`, the inhibition constant (Ki) in assay [1] is 50 nM. In assay [1], `Cc1ccc(CN2CCc3c(c(=O)n(CC4CCNCC4)c(=O)n3Cc3c(F)cccc3F)C2)c(C)c1` returned a Ki of 1900 nM. Also, in assay [2], the inhibition is 72%. On the same counts, the results for `CC(C)CN(C)CCn1c(=O)c2c(n(Cc3c(F)cccc3F)c1=O)CCN(Cc1ccc(OC(F)(F)F)cc1)C2` are 2500 nM and 73%.
